Source: patent US20240239790A1, “7-Morpholino-1,6-Naphthyridin-5-yl Derivatives and Pharmaceutical Compositions Thereof Useful as DNA-PK Inhibitor” (adMare Therapeutics Society, priority 2021, published 2024)
Where two headings read alike, the source gives them in different places.

Assays:
[1] = Microsomal Stability Assay, human liver microsomes; format: in vitro ADME; conditions: for microsomal CLint at 0.1 uM: both sexes, pH 7.4
Experimental: (§1) Samples were then mixed and centrifuged. Supernatants were used for HPLC-MS/MS analysis. […] Peak areas corresponding to the test compound were recorded.

DNA-PK = target: T1, DNA-PK (Homo sapiens, UniProt P78527); assay: DNA-PK Assay for Biochemical Enzymatic Inhibition (ADP Glo Kinase assay); conditions: DNA-PK enzyme
T1 construct: purchased Invitrogen PR9107A
Method in brief: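 Human DNA-PK (25 ng) preincubated 15 min with compounds (ten three-fold dilutions) in HEPES pH 7.5, MgCl2, KCl, calf thymus DNA buffer, then substrate 434.4 μM and ATP 64.4 μM (final) for 60 min at room temperature. ADP-Glo luminescence; percent inhibition fitted by four-parameter regression for IC50.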

[2] = Microsomal Stability Assay, mouse liver microsomes; format: in vitro ADME; conditions: for microsomal CLint at 0.1 uM: male, CD-1, pH 7.4
Experimental: as §1

[3] = test system: pDNA-PK induction in HCT116 tumour spheroids; assay: Multicellular tumour spheroid + radiation, pDNA-PK (ser2056) inhibition, immunohistochemical endpoint, HCT116; format: cell-based; conditions: Homo sapiens, 20 Gy, 20% O2
Method in brief: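 HCT116 spheroids (~0.5 mm) in MEM/10% FBS, 20% O2, 37° C., pre-incubated 1 h with compound (10 or 5 μM down to 3.5 nM), irradiated 20 Gy, then 2 h further with compound. Cryosections immunostained for pDNA-PK ser2056; EC50 is concentration halving radiation-induced pDNA-PK.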

[4] = target: T2, DNA-PK phosphorylation at Serine 2056 (Homo sapiens, UniProt P78527); assay: Cellular Assay for Inhibition of DNA-PK Phosphorylation at Serine 2056 in FaDu cells (sandwich ELISA, neocarzinostatin); format: cell-based; conditions: pSer2056 DNA-PK
T2 construct: FaDu cells were purchased from ATCC; host or cells: FaDu
Method in brief: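 pSer2056 and total DNA-PK were measured by sandwich ELISA in BCA-normalised FaDu lysates. Cells had 1 h compound exposure (0.3% DMSO), then 2 h with 1 μg/mL final neocarzinostatin. IC50 was fitted (variable slope) to % inhibition scaled against NCS-stimulated and DMSO-only controls.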

[5] = test system: pDNA-PK induction in FaDU tumour spheroids; assay: Multicellular tumour spheroid + radiation, pDNA-PK (ser2056) inhibition, immunohistochemical endpoint, FaDU; format: cell-based; conditions: Homo sapiens, 20 Gy
Experimental: Multicellular tumour spheroids determination of compound inhibition of pDNA-PK induction following radiation. Tumour spheroids were grown to approximately 0.5 mm in diameter and irradiated with 20 Gy in combination with inhibitor test compounds to determine their potency. Inhibitor concentration for 50% reduction in pDNA-PK induction (IC50) was determined via immunohistochemical staining in spheroid cryosections taken 2 hours following radiation. For cell survival endpoint 8 Gy radiation was used and 3 hours following radiation spheroids were dissociated, counted and plated for colony forming endpoint.
Spheroid+radiation pDNA-PK. Radiation: 20 Gy. Drug: serial dilution 5 or 10 μM down to 3.5 nM (11 wells). Spheroids: 3-6 spheroids per well (300-500 μm diameter). 20% 02 and 5% CO2. 96 well plate format. Endpoint: fluorescent immunostain pDNA-PK ser2056 and image on microscope. Analysis: determine EC50 concentrations that decreases pDNA-PK induction by 50% after irradiation.
Multicellular tumour spheroids were used to determine potency of test compounds in a 3D tissue environment using inhibition of pDNA-PK induction following radiation or cell survival as the endpoint. For the pDNA-PK endpoint HCT116 or FaDU tumour spheroids were grown to approximately 0.5 mm in diameter and irradiated with 20 Gy in combination with inhibitor test compounds to determine their potency. Experiments were carried out in 96 well plates containing 0.7 mls of MEM media containing 10% FBS and 10 mM glucose under 20% O2 & 5% CO2 at 37° C. Following dilution of compounds 1:1000 from DMSO stocks, compounds were serially diluted from 10 μM down to 3.5 nM and 5-10 spheroids added. 96 well plates were constantly stirred to avoid spheroids settling during the course of the experiment. The inhibitor concentration for 50% reduction in pDNA-PK induction (EC50) was determined via immunohistochemical staining in spheroid cryosections taken 2 hours following radiation using anti-pDNA-PK (ser 2056) and fixed immediately in formalin following sectioning. For cell survival endpoint 8 Gy radiation was used and, 3 hours following radiation, spheroids were dissociated, counted and plated for colony forming endpoint. Data presented in the table compound potency as EC50 [μM].

[6] = test system: pH2AX induction in HCT116 ATM-/- multicellular tumour spheroids; assay: Prodrug Radiation Sensitization in Multicellular Tumour Spheroids, inhibition of pH2AX induction following radiation; format: cell-based; conditions: Homo sapiens, HCT-116, 20 Gy
Method in brief: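 Endpoint: pH2AX (ser 139) or pDNA-PK (ser 2056) in cryosections fixed 1 or 2 h after 20 Gy, comparing oxygenated outer with hypoxic inner layers. Spheroids of ~0.5 mm (HCT116, FaDu; ATM-deficient cells used) held at 20% or 5% O2, 37 °C, stirred. Prodrug range 3.5 nM–10 μM.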

FaDu cell line = assay: Prodrug Activation in Hypoxic Stirred Tumour Cell Suspensions; conditions: 10 μM, 4 hours
FaDu tumour xenograft = assay: Tumour Growth Delay, FaDu tumour xenograft-bearing animals, compound ± radiation (TGD-ER); format: in vivo; conditions: PO
Experimental: FaDu tumour xenograft-bearing animals were monitored for tumour growth and once average tumour size reached approximately 100-250 mm3, animals were assigned to treatment cohorts using stratified randomization. […]
For BID dosing regimens, at 8 h following the first injection, animals were again administered with test compound at the same dose as their previous administration. Animals were weighed and had tumours measured using calipers three times weekly until the endpoint of maximum tumour volume, 1000 mm3, was reached and animals were euthanized. Tumour volumes were calculated according to the equation L×W^2/2 with the length (mm) being the longer axis of the tumour; in the case that no tumour was palpable, tumour volumes were recorded as 0 mm^3.
Data were calculated as tumour growth normalized to day 0 measurements, with time to tumour doubling determined. Average time to tumour doubling for each group was used to determine a Tumour Growth Delay Enhancement Ratio (TGD-ER): the time to doubling for treatment groups were divided by the time to doubling for irradiation-alone groups to determine group-specific TGD-ER values, and these were assigned scores based on defined response ranges: values>2.5=A, 1-2.5=B, <1=C.

[7] = human liver microsomes 0.1 mg/mL, 0.1 uM compound
[8] = mouse liver microsomes 0.1 mg/mL, 0.1 uM compound
[9] = HCT-116, 2 hours following radiation, Example 9 Study 2, read-out: Spheroid Cell line: HCT116 Immunohistochemical endpoint pDNA-PK inhibition EC50
[10] = HCT-116, Spheroid, Cell Line: HCT115 (so in the source), 2 hours following radiation, Example 7, read-out: EC50, Immunohistochemical endpoint, pDNA-PK inhibition
[11] = neocarzinostatin 1 μg/mL, Table 1
[12] = human liver microsomes, Example 11
[13] = 5% O2, inner layers, read-out: Prodrug 5% O2 Inner layers EC50
[14] = 5% O2, outer layers, read-out: Prodrug 5% O2 Outer layers EC50
[15] = 20% O2, outer layers, read-out: Prodrug 20% O2 Outer layers EC50
[16] = mouse liver microsomes, Example 11

Row | Structure (SMILES) | microsomal CLint at 0.1 uM [1, 7] [µL/min/mg] | Microsomal Stability Human % rem. 60 min ([1]; human liver microsomes) | IC50 (DNA-PK; Table 1) [nM] | microsomal CLint at 0.1 uM [2, 8] [µL/min/mg] | Microsomal Stability Mouse % rem. 60 min ([2]; mouse liver microsomes) | EC50 [3, 9] [nM] | EC50 [3, 10] [nM] | IC50 [4, 11] [nM] | other results
1 | CS(=O)(=O)NCCOc1cnc(N[C@H]2CC[C@@H](Oc3nc(N4CCOCC4)cc4ncccc34)CC2)nc1 [Compound 67] | > 116 | E (% remaining = 0-25%) | < 0.5 | < 116 | G (% remaining = 50-75%) | 10 to 500 | 500 to 1000 | < 100 | –
2 | c1cnc2cc(N3CCOCC3)nc(O[C@H]3CC[C@@H](Nc4ncc(OCCN5CCNCC5)cn4)CC3)c2c1 [Compound 70, N-((1s,4s)-4-((7-Morpholino-1,6-naphthyridin-5-yl)oxy)cyclohexyl)-5-(2-(piperazin-1-yl)ethoxy)pyrimidin-2-amine] | > 116 | F (% remaining = 25-50%) | < 0.5 | > 116 | F (% remaining = 25-50%) | 1000 to 10000 | 1000 to 10000 | < 100 | –
3 | CN(C)C(=O)COc1cnc(C(=O)N[C@H]2CC[C@@H](Oc3nc(N4CCOCC4)cc4ncccc34)CC2)nc1 [Compound 125] | < 116 | H (% remaining = 75-100%) | 0.5 to 1 | < 116 | H (% remaining = 75-100%) | 1000 to 10000 | 1000 to 10000 | 100 to 1000 | –
4 | COc1ccc(NC(=O)N[C@H]2CC[C@@H](Oc3nc(N4CCOCC4)cc4ncccc34)CC2)cc1 [Compound 152, 1-(4-Methoxyphenyl)-3-((1s,4s)-4-((7-morpholino-1,6-naphthyridin-5-yl)oxy)cyclohexyl)urea] | – | – | 0.5 to 1 | – | – | 1000 to 10000 | 1000 to 10000 | 100 to 1000 | EC50 ([5]; 2 hours following radiation, 20% O2, Example 9 Study 2, read-out: Spheroid Cell line: FaDU Immunohistochemical endpoint pDNA-PK inhibition EC50): 500 to 1000 nM; EC50 ([5]; 2 h, spheroids, 20% O2, Example 8, read-out: Cell line: FaDU Immunohistochemical endpoint pDNA-PK inhibition EC50): 500 to 1000 nM; EC50 ([3]; HCT-116, 2 h, spheroids, Example 8, read-out: Cell line: HCT116 Immunohistochemical endpoint pDNA-PK inhibition EC50): 1000 to 10000 nM
5 | O=S(=O)(Nc1cnc2cc(N3CCOCC3)nc(O[C@H]3CC[C@@H](Nc4ncccn4)CC3)c2c1)C1CC1 [Compound 186, N-(7-morpholino-5-(((1s,4s)-4-(pyrimidin-2-ylamino)cyclohexyl)oxy)-1,6-naphthyridin-3-yl)cyclopropanesulfonamide] | > 116 | F (% remaining = 25-50%) | 0.5 to 1 | < 116 | G (% remaining = 50-75%) | 1000 to 10000 | 1000 to 10000 | < 100 | –
6 | Cn1c(CN(c2cnc3cc(N4CCOCC4)nc(OC4CCC(NC(=O)c5ncccn5)CC4)c3c2)S(C)(=O)=O)cnc1[N+](=O)[O-] (stereo not drawn) [LFA016, N-[4-[[3-[(3-Methyl-2-nitro-imidazol-4-yl)methyl-methylsulfonyl-amino]-7-morpholino-1,6-naphthyridin-5-yl]oxy]cyclohexyl]pyrimidine-2-carboxamide] | – | – | – | – | – | – | – | – | microsomal CLint at 0.1 uM [1, 12]: < 116 µL/min/mg; Microsomal Stability Human % rem. 60 min [1, 12]: F (% remaining = 25-50%); EC50 [6, 13]: 1000 to 10000 nM; EC50 [6, 14]: 1000 to 10000 nM; EC50 [6, 15]: 10000 to 100000 nM; IC50 (DNA-PK; Table 2): 10 to 150 nM; microsomal CLint at 0.1 uM [2, 16]: < 116 µL/min/mg; Microsomal Stability Mouse % rem. 60 min [2, 16]: G (% remaining = 50-75%); Fraction of prodrug converted to active form, Hypoxic 0.2% O2 (FaDu cell line): C (C is 0.02 to 0.05); Fraction of prodrug converted to active form, Oxic 5% O2 (FaDu cell line): D (D is 0 to 0.02); IC50 ([4]; Table 2): 10000 to 30000 nM
7 | CN1CCN(CCOc2cnc(N[C@H]3CC[C@@H](Oc4nc(N5CCOCC5)cc5ncc(NS(C)(=O)=O)cc45)CC3)nc2)CC1 [LFA031, N-[5-[4-[[5-[2-(4-Methylpiperazin-1-yl)ethoxy]pyrimidin-2-yl]amino]cyclohexoxy]-7-morpholino-1,6-naphthyridin-3-yl]methanesulfonamide] | – | – | – | – | – | – | – | – | TGD-ER Range Score (FaDu tumour xenograft; 30 mpk BID + 10 Gy): B (1-2.5=B)
8 | CC(c1cnc([N+](=O)[O-])n1C)N(c1cnc2cc(N3CCOCC3)nc(O[C@H]3CC[C@@H](Nc4ncc(OCCN5CCN(C)CC5)cn4)CC3)c2c1)S(C)(=O)=O (stereo partly drawn) [LFA033, N-[1-(3-Methyl-2-nitro-imidazol-4-yl)ethyl]-N-[5-[4-[[5-[2-(4-methylpiperazin-1-yl)ethoxy]pyrimidin-2-yl]amino]cyclohexoxy]-7-morpholino-1,6-naphthyridin-3-yl]methanesulfonamide] | – | – | – | – | – | – | – | – | TGD-ER Range Score (FaDu tumour xenograft; 50 mpk BID + 10 Gy): C (<1=C)
9 | CN(C)C(=O)COc1cnc(N[C@H]2CC[C@@H](Oc3nc(N4CCOCC4)cc4ncc(OCc5cnc([N+](=O)[O-])n5C)cc34)CC2)nc1 [LFA114, N,N-Dimethyl-2-[2-[[4-[[3-[(3-methyl-2-nitro-imidazol-4-yl)methoxy]-7-morpholino-1,6-naphthyridin-5-yl]oxy]cyclohexyl]amino]pyrimidin-5-yl]oxy-acetamide] | – | – | – | – | – | – | – | – | microsomal CLint at 0.1 uM [1, 12]: < 116 µL/min/mg; Microsomal Stability Human % rem. 60 min [1, 12]: E (% remaining = 0-25%); EC50 [6, 13]: 10 to 500 nM; EC50 [6, 14]: 500 to 1000 nM; EC50 [6, 15]: 1000 to 10000 nM; IC50 (DNA-PK; Table 2): 10 to 150 nM; microsomal CLint at 0.1 uM [2, 16]: > 116 µL/min/mg; Microsomal Stability Mouse % rem. 60 min [2, 16]: E (% remaining = 0-25%); Fraction of prodrug converted to active form, Hypoxic 0.2% O2 (FaDu cell line): A (A is 0.15 to 1); Fraction of prodrug converted to active form, Oxic 5% O2 (FaDu cell line): B (B is 0.05 to 0.15); IC50 ([4]; Table 2): 10000 to 30000 nM
